{"source": "paper PMC8086230", "about": "(Acta Pharmacologica Sinica, 2021)", "key": {"[1]": {"assay": "not given", "remark": "listed apart in the source"}, "mock HEK-293 cells": {"test_system": "mock HEK-293 cells", "assay": "Passive diffusion in mock HEK-293 cells", "assay_type": "in vitro ADME, human"}, "[2]": {"assay": "BCS classification stated in the discussion"}, "human renal 11β-HSD2": {"molecular_target": "T1, human renal 11β-HSD2 (Homo sapiens, UniProt P80365)", "T1 sequence (P80365 1-405)": "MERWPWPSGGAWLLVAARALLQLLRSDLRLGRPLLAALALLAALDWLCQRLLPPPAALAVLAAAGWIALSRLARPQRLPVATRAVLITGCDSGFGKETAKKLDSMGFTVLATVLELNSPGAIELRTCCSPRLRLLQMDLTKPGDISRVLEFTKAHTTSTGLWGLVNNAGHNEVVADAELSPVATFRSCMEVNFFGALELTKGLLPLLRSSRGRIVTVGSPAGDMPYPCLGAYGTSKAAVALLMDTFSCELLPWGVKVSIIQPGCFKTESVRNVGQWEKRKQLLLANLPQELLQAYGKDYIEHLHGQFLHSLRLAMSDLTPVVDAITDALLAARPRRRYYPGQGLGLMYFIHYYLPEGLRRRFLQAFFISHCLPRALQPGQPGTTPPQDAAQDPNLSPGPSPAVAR", "assay_type": "biochemical", "conditions": "read-out: Km for human 11β-HSD2"}, "[3]": {"conditions": "after orally dosing LianhuaQingwen, 12 capsules/person"}}, "note": "Read-outs that look alike come from different tables or passages of the source.", "data": [{"compound": "22α-hydroxyglycyrrhetic acid-3-O-sulfate", "values": [{"measurement": "Detection in rat plasma or urine samples", "setting": "rat, in vivo, po", "value": "not detected"}, {"measurement": "Detection in human plasma and urine samples", "setting": "[1]; in vivo, po", "value": "not detected"}]}, {"compound": "CC1(C(=O)OC2OC(C(=O)O)C(O)C(O)C2O)CC(O)C2(C)CCC3(C)C(=CC(=O)C4C5(C)CCC(OS(=O)(=O)O)C(C)(C)C5CCC43C)C2C1", "note": "(stereo not drawn) [22α-hydroxyglycyrrhetic acid-3-O-sulfate-30-O-glucuronide]", "values": [{"measurement": "Detection in rat plasma or urine samples", "setting": "rat, in vivo, po", "value": "not detected"}, {"measurement": "Detection in human plasma and urine samples", "setting": "[1]; in vivo, po", "value": "not detected"}]}, {"compound": "CC1(C)[C@@H](O[C@H]2O[C@H](C(=O)O)[C@@H](O)[C@H](O)[C@H]2O[C@@H]2O[C@H](C(=O)O)[C@@H](O)[C@H](O)[C@H]2O)CC[C@]2(C)[C@H]3C(=O)C=C4[C@@H]5C[C@@](C)(C(=O)O)CC[C@]5(C)CC[C@@]4(C)[C@]3(C)CC[C@@H]12", "note": "[Compound 1, Glycyrrhizin]", "values": [{"measurement": "transport rate, membrane permeation in mock cells", "setting": "mock HEK-293 cells", "value": "< 5", "unit": "pmol·min^−1·mg^−1 protein"}, {"measurement": "Presence in rat samples", "setting": "rat, in vivo, po", "value": "Plasma, bile, urine, feces"}, {"measurement": "Presence in human samples", "setting": "[1]; in vivo, po", "value": "Plasma, urine, feces"}, {"measurement": "BCS Class", "setting": "[2]", "value": "BCS Class III"}]}, {"compound": "CC1(C)[C@@H](O[C@@H]2O[C@H](C(=O)O)[C@@H](O)[C@H](O)[C@H]2O[C@@H]2O[C@H](C(=O)O)[C@@H](O)[C@H](O)[C@H]2O)CC[C@]2(C)[C@H]3C(=O)C=C4[C@@H]5C[C@](C)(C(=O)O)CC[C@]5(C)CC[C@@]4(C)[C@]3(C)CC[C@@H]12", "note": "[Compound 3, Licorice saponin H2]", "values": [{"measurement": "Presence in rat samples", "setting": "rat, in vivo, po", "value": "Plasma, bile, urine, feces"}]}, {"compound": "O=C1C[C@@H](c2ccc(O[C@@H]3O[C@H](CO)[C@@H](O)[C@H](O)[C@H]3O)cc2)Oc2cc(O)ccc21", "note": "[Compound 21, Liquiritin]", "values": [{"measurement": "transport rate, membrane permeation in mock cells", "setting": "mock HEK-293 cells; human, 10 min, 50 µmol/L", "value": "< 5", "unit": "pmol·min^−1·mg^−1 protein"}, {"measurement": "Presence in rat samples", "setting": "rat, in vivo, po", "value": "Plasma, bile, urine, feces"}, {"measurement": "Presence in human samples", "setting": "[1]; in vivo, po", "value": "Plasma, urine"}, {"measurement": "BCS Class", "setting": "[2]", "value": "BCS Class III"}]}, {"compound": "O=C(/C=C/c1ccc(O[C@@H]2O[C@H](CO)[C@@H](O)[C@H](O)[C@H]2O)cc1)c1ccc(O)cc1O", "note": "[Compound 24, Isoliquiritin]", "values": [{"measurement": "Presence in rat samples", "setting": "after orally dosing LianhuaQingwen, 3.78 g/kg", "value": "Plasma, bile, urine, feces"}, {"measurement": "Presence in human samples", "setting": "[1]; [3]", "value": "Plasma, urine"}]}, {"compound": "O=C(/C=C/c1ccc(O)cc1)c1ccc(O)cc1O", "note": "[Compound 26, Isoliquiritigenin]", "values": [{"measurement": "Presence in human samples", "setting": "[1]; [3]", "value": "Plasma, urine, feces"}]}, {"compound": "O=C(CCc1ccc(O)cc1)c1ccc(O)cc1O", "note": "[Compound M27R, Davidigenin]", "values": [{"measurement": "Presence in human samples", "setting": "[1]; in vivo, po", "value": "Urine"}]}, {"compound": "C[C@]12CCC(=O)C=C1CC[C@@H]1[C@@H]2[C@@H](O)C[C@@]2(C)[C@H]1CC[C@]2(O)C(=O)CO", "note": "[cortisol]", "values": [{"measurement": "Km", "setting": "human renal 11β-HSD2", "value": 0.045, "unit": "µM"}]}]}
